Patent US10906884B2, “Benzodiazepine derivatives as CCK2/gastrin receptor antagonists” (Trio Medicines Ltd, priority 2014, dated 2021)
≈ marks a conversion by molar mass, not a printed value. Read-outs that look alike come from different tables or passages of the source.

Tests used:
[1] = Aqueous solubility study in Britton-Robinson's buffer (HPLC-UV); type: physicochemical; conditions: ambient temperature overnight; for solubility: thermodynamic from solid
Experimental: The test compound (2.5 mg of solid; n=1) was weighed in a clear glass vial and Britton-Robinson's buffer (0.5 mL) was added (pH 2.01, pH 3.06, pH 4.06, pH 5.08, pH 5.99, pH 6.98, and pH 8.16). The solution was agitated at ambient temperature overnight using a vial roller system, and then filtered (0.45 μm pore size; without pre-saturation). Two aliquots (50 μL) were sampled from the filtrate and diluted with one volume of 0.1 N hydrochloric acid and methanol (1:1 v/v) before analysis by HPLC-UV. A standard was prepared in DMSO at 10 mg/mL (n=1) which was then diluted 10-fold in 0.1 N hydrochloric acid and methanol (1:1 v/v) to give a 1 mg/mL solution. The concentration of test compound in the filtrate was quantified relative to the concentration standard.
Analysis was done using a gradient HPLC-UV system with a total cycle time of 6 min. The UV detection between 220 nm and 300 nm was done using a photodiode array detector.
The values given in the table above are for crystalline YF476 and (TR2-A) and amorphous (TR1).

[2] = Pharmacokinetics in healthy subjects, single oral dose, API in capsule; conditions: human, in vivo
Experimental: In an initial study, healthy volunteers took a single oral dose of 100 mg (TR2) as an active pharmaceutical ingredient (API) in a capsule. Plasma concentrations were measured.
In further clinical studies, healthy volunteers (n=8) took single oral doses of 5, 15, 50 and 100 mg (TR2) as an active pharmaceutical ingredient (API) in a capsule. (Capsule formulation TR2 powder (API) in a hard gelatin capsule, no excipients, no processing). Plasma concentrations were measured.
Healthy volunteers (n=8) took single oral doses of 5, 15, 25 and 50 mg (TR2-A) as API in a capsule (TR2-A (crystalline) in hard gelatin capsule with no excipient, no processing of the API). Plasma concentrations of (TR2) and (TR2-A) were measured. The area under the curve of plasma concentrations of (TR2) after a single oral dose of 50 mg of (TR2-A) API (AUC0-24 h=212.5) was about the same as that observed for a similar formulation of a single oral dose of (TR2) 100 mg (AUC0-24 h=241.5).

CCK1 (human) = target: T1, CCK1 (human) (Homo sapiens, UniProt P32238); assay: CCK1 receptor functional assay (antagonist effect, cAMP, HTRF); type: cell-based; conditions: stimulus CCK-8s 300 nM, 10 min 37° C., CHO cells
T1 construct: expressed in transfected cells; host or cells: CHO cells
T1 sequence (P32238 1-428): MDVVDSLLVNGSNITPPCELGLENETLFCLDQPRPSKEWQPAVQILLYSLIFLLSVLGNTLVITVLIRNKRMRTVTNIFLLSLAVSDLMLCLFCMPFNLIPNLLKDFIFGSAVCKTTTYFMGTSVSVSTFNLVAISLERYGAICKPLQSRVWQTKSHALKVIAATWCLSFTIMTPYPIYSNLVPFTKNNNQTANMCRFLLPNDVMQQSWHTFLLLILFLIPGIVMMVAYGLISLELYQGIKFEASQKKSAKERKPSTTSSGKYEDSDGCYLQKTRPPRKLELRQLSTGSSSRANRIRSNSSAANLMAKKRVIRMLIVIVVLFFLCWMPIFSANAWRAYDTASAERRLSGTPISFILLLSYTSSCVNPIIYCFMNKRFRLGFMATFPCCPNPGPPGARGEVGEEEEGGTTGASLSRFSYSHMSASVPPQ
From the text: (§1) (TR2) and (TR3) were compared with YF476 and YM022 in CCK1 and CCK2 receptor functional assays with the following assay criteria.
(§2) The potency of the antagonists is expressed as IC50, the concentration of antagonist that causes a half-maximum inhibition of the control agonist response. The affinity of the antagonist for the receptor is expressed as KB, the concentration of antagonist, which would occupy 50% of the receptors at equilibrium.

[3] = tested on: AGSGR cells (gastric adenocarcinoma cell line transfected with human gastrin/CCK2 receptor gene); assay: Sulphorhodamine-B (SRB) proliferation assay, G17-treated cells; type: cell-based; conditions: compound 100 nM, G17 10 nM
Experimental: The potency of (TR2) and (TR3) was tested in a sulphorhodamine-B (SRB) proliferation assay in a human gastric adenocarcinoma cell line stably transfected with the human gastrin/CCK2 receptor gene (AGSGR). SRB is a fluorescent dye that binds to proteins, so cells with a high rate of protein synthesis (proliferative cells) will show high levels of fluorescence in the SRB assay. […] (TR2) and (TR3) were compared with the positive controls YF476 and YM022.

[4] = tested on: pentagastrin-stimulated gastric acid secretion; assay: Pentagastrin-stimulated gastric acid secretion in conscious rats with a chronic gastric fistula; type: in vivo; conditions: Rattus norvegicus, sc; subcutaneous injection, conscious rats; read-out: ED50, inhibition of pentagastrin-stimulated gastric acid secretion
Experimental: The effect of subcutaneous injections of YF476, (TR2) and (TR3) on pentagastrin-stimulated gastric acid secretion was tested in conscious rats with a chronic gastric fistula.

[5] = YF476 serum concentrations and bioavailability in healthy subjects (background); type: in vivo, human
From the text: Bioavailability can be improved by preparing and administering a formulation of amorphous YF476, but this requires stabilisation such as in the form of a solid dispersion on hydroxypropyl methyl cellulose by spray-drying. Even with this processing, bioavailability of YF476 was still low. […] However, it would be beneficial to provide a CCK2/gastrin receptor antagonist where administration with food is not required.

CCK2 (human) [6] = target: T2, CCK2 (human) (Homo sapiens, UniProt P32239); conditions: Semple et al. 1997; cited from earlier work
T2 sequence (P32239 1-447): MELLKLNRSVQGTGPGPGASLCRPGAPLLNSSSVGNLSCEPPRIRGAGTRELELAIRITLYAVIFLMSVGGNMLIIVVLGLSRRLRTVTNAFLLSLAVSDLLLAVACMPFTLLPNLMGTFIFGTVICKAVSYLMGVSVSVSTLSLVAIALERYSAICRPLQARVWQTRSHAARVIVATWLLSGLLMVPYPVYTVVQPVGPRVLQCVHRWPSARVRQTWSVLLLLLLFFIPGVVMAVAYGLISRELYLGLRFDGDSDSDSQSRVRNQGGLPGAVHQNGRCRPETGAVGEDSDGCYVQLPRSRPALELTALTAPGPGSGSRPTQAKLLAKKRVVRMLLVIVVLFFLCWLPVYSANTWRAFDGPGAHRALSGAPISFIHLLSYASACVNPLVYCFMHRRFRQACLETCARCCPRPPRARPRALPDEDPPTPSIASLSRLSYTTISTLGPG

CCK2 (human) [7] = target: T2, CCK2 (human); assay: CCK2 receptor functional assay (antagonist effect, cAMP, HTRF); type: cell-based; design: expressed in transfected cells; host or cells: CHO cells
From the text: as §1, §2

rat brain CCK2 receptors = target: T3, rat brain CCK2 receptors (Rattus norvegicus, UniProt P30553); conditions: cited from earlier work
T3 construct: host or cells: rat brain
T3 sequence (P30553 1-452): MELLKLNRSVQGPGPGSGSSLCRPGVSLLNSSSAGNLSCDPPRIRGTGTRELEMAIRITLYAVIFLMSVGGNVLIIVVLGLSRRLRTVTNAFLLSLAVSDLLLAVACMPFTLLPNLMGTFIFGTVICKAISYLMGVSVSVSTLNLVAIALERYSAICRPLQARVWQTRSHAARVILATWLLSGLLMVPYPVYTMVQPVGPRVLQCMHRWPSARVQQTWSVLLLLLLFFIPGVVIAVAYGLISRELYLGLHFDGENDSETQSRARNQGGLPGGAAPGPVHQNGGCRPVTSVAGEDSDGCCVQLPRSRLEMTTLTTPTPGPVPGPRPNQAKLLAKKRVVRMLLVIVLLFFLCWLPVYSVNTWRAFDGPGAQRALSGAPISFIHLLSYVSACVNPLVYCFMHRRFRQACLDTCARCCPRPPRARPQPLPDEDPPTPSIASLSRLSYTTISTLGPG

[8] = cited from earlier work
[9] = aqueous buffer, pH 2.01, Britton-Robinson's buffer
[10] = aqueous buffer, pH 3.06, Britton-Robinson's buffer
[11] = aqueous buffer, pH 4.06, Britton-Robinson's buffer
[12] = aqueous buffer, pH 5.08, Britton-Robinson's buffer
[13] = aqueous buffer, pH 5.99, Britton-Robinson's buffer
[14] = aqueous buffer, pH 6.98, Britton-Robinson's buffer
[15] = aqueous buffer, pH 8.16, Britton-Robinson's buffer
[16] = pH 2.01, Britton-Robinson's buffer
[17] = pH 3.06, Britton-Robinson's buffer
[18] = pH 4.06, Britton-Robinson's buffer
[19] = pH 5.08, Britton-Robinson's buffer
[20] = pH 5.99, Britton-Robinson's buffer
[21] = pH 6.98, Britton-Robinson's buffer
[22] = pH 8.16, Britton-Robinson's buffer

Structure (SMILES)	solubility [1, 9] [µg/mL]	solubility [1, 10] [µg/mL]	solubility [1, 11] [µg/mL]	solubility [1, 12] [µg/mL]	solubility [1, 13] [µg/mL]	solubility [1, 14] [µg/mL]	solubility [1, 15] [µg/mL]	Aqueous solubility [1, 16] [µg/mL]	Aqueous solubility [1, 17] [µg/mL]	Aqueous solubility [1, 18] [µg/mL]	Aqueous solubility [1, 19] [µg/mL]	Aqueous solubility [1, 20] [µg/mL]	Aqueous solubility [1, 21] [µg/mL]	Aqueous solubility [1, 22] [µg/mL]	Inhibition of the anti-proliferative effects of G17 [3]	further results
CNc1cccc(NC(=O)NC2N=C(c3ccccn3)c3ccccc3N(CC(=O)C(C)(C)CO)C2=O)c1 (racemic) [TR1, 1-[1-(4-Hydroxy-3,3-dimethyl-2-oxo-butyl)-2-oxo-5-pyridin-2-yl-2,3-dihydro-1H-1,4-benzodiazepin-3-yl]-3-(3-methylamino-phenyl)-urea]	5000 (≈ 9720 µM)	645 (≈ 1250 µM)	58.2 (≈ 113 µM)	9.8 (≈ 19 µM)	11.6 (≈ 22.5 µM)	5.84 (≈ 11.3 µM)	7.81 (≈ 15.2 µM)									
CNc1cccc(NC(=O)N[C@@H]2N=C(c3ccccn3)c3ccccc3N(CC(=O)C(C)(C)COC(C)=O)C2=O)c1 [TR2-A amorphous]								5000	683	282	128	53.4	43	40.2		
CNc1cccc(NC(=O)N[C@@H]2N=C(c3ccccn3)c3ccccc3N(CC(=O)C(C)(C)COC(C)=O)C2=O)c1 [TR2-A crystalline]								4190	730	218	56	47.2	51	45.4		
CNc1cccc(NC(=O)N[C@@H]2N=C(c3ccccn3)c3ccccc3N(CC(=O)C(C)(C)COC(C)=O)C2=O)c1 [TR2-A, (R)-1-[1-(4-Acetoxy-3,3-dimethyl-2-oxo-butyl)-2-oxo-5-pyridin-2-yl-2,3-dihydro-1H-benzo[e][1,4]diazepin-3-yl]-3-(3-methylamino-phenyl)-urea]											56					solubility ([1]; pH 2.01, aqueous buffer, pH 2.01, Britton-Robinson's buffer): 4190 µg/mL (≈ 7530 µM); solubility ([1]; pH 3.06, aqueous buffer, pH 3.06, Britton-Robinson's buffer): 730 µg/mL (≈ 1310 µM); solubility ([1]; pH 4.06, aqueous buffer, pH 4.06, Britton-Robinson's buffer): 218 µg/mL (≈ 392 µM); solubility ([1]; pH 5.99, aqueous buffer, pH 5.99, Britton-Robinson's buffer): 47.2 µg/mL (≈ 84.8 µM); solubility ([1]; pH 6.98, aqueous buffer, pH 6.98, Britton-Robinson's buffer): 51 µg/mL (≈ 91.6 µM); solubility ([1]; pH 8.16, aqueous buffer, pH 8.16, Britton-Robinson's buffer): 45.4 µg/mL (≈ 81.6 µM); AUC(0-t) ([2]; after single oral doses of (TR2-A), analyte TR2-A, read-out: AUC0-24 h of plasma concentrations of (TR2-A)): < 10 ng·h/mL
CNc1cccc(NC(=O)N[C@@H]2N=C(c3ccccn3)c3ccccc3N(CC(=O)C(C)(C)C)C2=O)c1 [YF476, reference compound]	2650 (≈ 5320 µM)	99.7 (≈ 200 µM)	5.9 (≈ 11.8 µM)	1.4 (≈ 2.81 µM)	1.3 (≈ 2.61 µM)	1.4 (≈ 2.81 µM)	1.5 (≈ 3.01 µM)								completely inhibited	IC50 (CCK1 (human)): 160 nM; ED50 [4]: 0.012 µmol/kg; AUC ([2]; po, 100 mg): 198 ng·h/mL; AUC(0-t) ([2]; po, 100 mg): 81.3 ng·h/mL; Increase of bioavailability by food [5]: 1.6 fold; Serum concentrations ([5]; crystalline form): extremely low and very variable; More selective for CCK2 receptors than for CCK1 receptors (compared with YM022) (CCK2 (human) [6]): 5 fold; Selectivity IC50 (CCK1)/IC50 (CCK2) (CCK2 (human) [7]): 308; Selectivity KB (CCK1)/KB (CCK2) (CCK2 (human) [7]): 375; IC50 (CCK2 (human) [7]; stimulus CCK-8s 10 nM, 10 min 37° C., CHO cells, read-out: CCK2 IC50): 0.52 nM; Kb (CCK2 (human) [7]; stimulus CCK-8s 10 nM, 10 min 37° C., CHO cells, read-out: CCK2 KB): 0.064 nM
Cc1cccc(NC(=O)N[C@@H]2N=C(c3ccccc3)c3ccccc3N(CC(=O)c3ccccc3C)C2=O)c1 [YM022, reference compound]															completely inhibited	Affinity at rat brain CCK2 receptors (rat brain CCK2 receptors): subnanomolar; Affinity at rat brain CCK2 receptors relative to rat pancreatic CCK1 receptors (rat brain CCK2 receptors): more than two orders of magnitude higher; Aqueous solubility [8]: low; IC50 (CCK2 (human) [7]): 0.55 nM; Kb (CCK2 (human) [7]): 0.68 nM
